Article PMC5814210, “2-Amino-3-methylcarboxy-5-heptyl-thiophene (TJ191) is a selective anti-cancer small molecule that targets low TβRIII-expressing malignant T-cell leukemia/lymphoma cells” (Oncotarget, 2017)
Where two headings read alike, the source gives them in different places.

What was measured:
HSB-2 cells = experiment: Proliferation assay, HSB-2 cells; type: cell-based, human; details: three days, cell counting, read-out: IC50 (50% inhibition of cell growth)
Protocol: (§1) PBMCs were isolated from Buffy coats obtained from healthy blood donors (after receiving informed consent) using lymphoprep according to the manufacturer’s instructions. PBMCs were then stimulated with interleukin-2 (2 ng/ml, R&D systems, Abingdon, UK) and phytohemagglutinin (2 µg/ml, Sigma-Aldrich) for three days and used in the experiments described below. Human T-cell leukemia/lymphoma cell lines CCRF-CEM (referred to as CEM), JURKAT, MOLT-3, MOLT-4, SUP-T1, MT-2, MT-4, C8166, HSB-2, and HUT-78 were obtained from ATCC (Middlesex, UK). Cells were cultured in RPMI-1640 medium supplemented with 10% fetal bovine serum (FBS, Gibco, Erembodegem, Belgium) and 2 mM L-glutamine (Gibco). […] After three days, cells were counted using the coulter cell counter (Analis, Belgium). The IC50 value refers to the compound concentration that causes 50% inhibition of cell growth.

MT-2 cells = experiment: Proliferation assay, MT-2 cells; type: cell-based, human; details: three days, cell counting, read-out: IC50 (50% inhibition of cell growth)
Protocol: as §1

C8166 cells = experiment: Proliferation assay, C8166 cells; type: cell-based, human; details: three days, cell counting, read-out: IC50 (50% inhibition of cell growth)
Protocol: as §1

[1] = test system: primary human fibroblasts; set-up: method as in PMID 28365318; details: read-out: IC50, growth of primary human fibroblasts; cited from earlier work
tumor cell lines = test system: tumor cell lines; set-up: method as in PMID 28365318; details: cited from earlier work
CEM cells [2] = experiment: Apoptosis assay (caspase-3 activity, NucView substrate) in CEM cells; type: cell-based, human; details: 0.3 µM, 24 h
Protocol: Figure 1 Cytostatic and cytotoxic activity of TJ191 in T-cell leukemia/lymphoma cells (A) Chemical structure of TJ191. (B) Effect of TJ191 on the growth of human T-cell leukemia/lymphoma cell lines. (C) Pro-apoptotic effect of TJ191 in CEM cells. Cells were incubated with TJ191 for 8 h or 24 h and apoptosis was determined based on caspase-3 activity using the NucView […] Caspase-3 substrate, according to the manufacturer’s instruction, and fluorescence microscopy (Axiovert 200 M inverted microscope, Zeiss). Left panel, representative fluorescence microscopy images are shown; scale bars, 50 µm. Right panel, quantification of the apoptosis rate is shown. Bars represent the mean percentage of cells stained positive for caspase-3 of three different sections; bars, ± S.E.M. Data are representative of two independent experiments.
6 × 10^5 CEM cells/well were seeded into 96-well plates and treated with TJ191 in the presence of 2 µM NucView 488 caspase substrate (Biotium, Hayward, CA). When cells undergo apoptosis, the caspase substrate is cleaved by activated caspase-3/7 to release the DNA dye NucView 488, which stains the nucleus with bright green fluorescence. Cells were fixed at indicated times in 2% paraformaldehyde for 10 min at room temperature and analyzed for NucView 488 staining using a Carl Zeiss Axiovert 200 M inverted microscope (Zeiss, Göttingen, Germany).

[3] = test system: TβRIII KO1 and KO2 HUT-78 cells; experiment: Proliferation assay, TβRIII knock-out HUT-78 cells (KO1 and KO2); type: cell-based, human; details: three days, cell counting
Protocol: (§2) Human T-cell leukemia/lymphoma and prostate cancer cell lines were seeded into 96-well plates at a density of 60 × 10^3 and 20 × 10^3 cells/well respectively, and treated with 5-fold dilutions of TJ191, cladribine, 6-MP, ara-C, 6-TG, adriamycine or endoxan. 200 × 10^3 PBMCs/well were seeded and treated as indicated above. After three days, cells were counted using the coulter cell counter (Analis, Belgium). The IC50 value refers to the compound concentration that causes 50% inhibition of cell growth.

Water solubility = type: physicochemical; details: precludes in vivo testing
MOLT-4 cells = experiment: Proliferation assay, MOLT-4 cells; type: cell-based, human; details: three days, cell counting, read-out: IC50 (50% inhibition of cell growth)
Protocol: as §1

HUT-78 cells = experiment: Proliferation assay, HUT-78 cells; type: cell-based, human
Protocol: as §1

MOLT-3 cells = experiment: Proliferation assay, MOLT-3 cells; type: cell-based, human; details: three days, cell counting, read-out: IC50 (50% inhibition of cell growth)
Protocol: as §1

PBMCs [4] = test system: PBMCs; set-up: method as in PMID 28365318; details: read-out: IC50, growth of PBMCs; cited from earlier work
MT-4 cells = experiment: Proliferation assay, MT-4 cells; type: cell-based, human; details: three days, cell counting, read-out: IC50 (50% inhibition of cell growth)
Protocol: as §1

CEM cells [5] = experiment: Proliferation assay, CEM cells; type: cell-based, human; details: three days, cell counting, read-out: IC50 (50% inhibition of cell growth)
Protocol: as §1

SUP-T1 cells = experiment: Proliferation assay, SUP-T1 cells; type: cell-based, human; details: three days, cell counting, read-out: IC50 (50% inhibition of cell growth)
Protocol: as §1

JURKAT cells = experiment: Proliferation assay, JURKAT cells; type: cell-based, human; details: three days, cell counting, read-out: IC50 (50% inhibition of cell growth)
Protocol: as §1

CEM-R cells = experiment: Proliferation assay, TJ191-selected resistant CEM cells (CEM-R); type: cell-based, human; details: selected one month at 100-fold IC50 concentration of TJ191; three days growth
Protocol: as §2

PBMCs [6] = experiment: Proliferation assay, PBMCs; type: cell-based, human; details: PBMCs stimulated with IL-2 and phytohemagglutinin, three days, cell counting, read-out: IC50 (50% inhibition of cell growth)
Protocol: PBMCs were isolated from Buffy coats obtained from healthy blood donors (after receiving informed consent) using lymphoprep according to the manufacturer’s instructions. PBMCs were then stimulated with interleukin-2 (2 ng/ml, R&D systems, Abingdon, UK) and phytohemagglutinin (2 µg/ml, Sigma-Aldrich) for three days and used in the experiments described below. Human T-cell leukemia/lymphoma cell lines CCRF-CEM (referred to as CEM), JURKAT, MOLT-3, MOLT-4, SUP-T1, MT-2, MT-4, C8166, HSB-2, and HUT-78 were obtained from ATCC (Middlesex, UK). Cells were cultured in RPMI-1640 medium supplemented with 10% fetal bovine serum (FBS, Gibco, Erembodegem, Belgium) and 2 mM L-glutamine (Gibco).
as §2

## 2-amino-3-methylcarboxy-5-heptyl-thiophene [TJ191]
HSB-2 cells
  IC50: 0.26 ± 0.16 µM
MT-2 cells
  IC50: 0.32 ± 0.086 µM
C8166 cells
  IC50: 3.1 ± 0.5 µM
[1]
  IC50: > 100 µM
Tumor cell lines; drug-insensitive tumor cell lines, read-out: IC50 in drug-insensitive tumor cell lines
  IC50: ~60 µM
Tumor cell lines; drug-sensitive tumor cell lines, read-out: IC50 in drug-sensitive tumor cell lines
  IC50: ~0.1 µM
CEM cells [2]
  Maximum apoptotic rate (cells positive for caspase-3): ~80%
[3]
  Change of IC50 in TβRIII KO1 and KO2 cells compared with parental or scrambled control HUT-78 cells: reduced at least four- to five-fold
Water solubility
  Water solubility: relative water insolubility
MOLT-4 cells
  IC50: 0.22 ± 0.11 µM
HUT-78 cells; HUT-78 cells (parental), three days, cell counting, read-out: IC50 (50% inhibition of cell growth)
  IC50: 17 ± 10 µM
HUT-78 cells; ratio of IC50 HUT-78 to IC50 CEM
  Fold less sensitive, parental HUT-78 versus CEM cells: 130 fold
MOLT-3 cells
  IC50: 0.26 ± 0.19 µM
PBMCs [4]
  IC50: > 100 µM
MT-4 cells
  IC50: 47 ± 5 µM
CEM cells [5]
  IC50: 0.13 ± 0.02 µM
SUP-T1 cells
  IC50: 1.5 ± 0.02 µM
JURKAT cells
  IC50: 0.13 ± 0.08 µM
CEM-R cells
  Reduced sensitivity of CEM-R compared with wild-type CEM: ~100 fold

## Nc1nc2nc[nH]c2c(=S)[nH]1 [6-TG, 6-thioguanine]
PBMCs [6]; Homo sapiens, PBMC, 72 h
  IC50: 0.57 ± 0.27 µM

## COc1cccc2c1C(=O)c1c(O)c3c(c(O)c1C2=O)C[C@@](O)(C(=O)CO)C[C@@H]3O[C@H]1C[C@H](N)[C@H](O)[C@H](C)O1 [adriamycine]
PBMCs [6]
  IC50: 0.079 ± 0.062 µM

## Nc1ccn([C@@H]2O[C@H](CO)[C@@H](O)[C@@H]2O)c(=O)n1 [ara-C, 1-β-D-arabinofuranosyl cytosine]
PBMCs [6]; Homo sapiens, PBMC, 72 h
  IC50: 0.88 ± 0.6 µM

## Nc1nc(Cl)nc2c1ncn2[C@H]1C[C@H](O)[C@@H](CO)O1 [cladribine, Cladribine]
PBMCs [6]; Homo sapiens, PBMC, 72 h
  IC50: 0.18 ± 0.09 µM

## O=P1(N(CCCl)CCCl)NCCCO1 (stereo not drawn) [endoxan, cyclophosphamide, reference compound]
[3]
  Change of IC50 in TβRIII KO1 and KO2 cells compared with parental or scrambled control HUT-78 cells: no significant difference
